Columns and labels:
Assay in all cases: Test B preemergence/postemergence greenhouse plant response rating 0 to 10
wild oat = format: in vivo, Avena fatua; details: for Plant response rating, Wild oat: 0 to 10 scale
In short: (§1)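 Test chemicals, dissolved in a non-phytotoxic solvent, were applied to soil at planting and, at the same time, over foliage of seedlings at the one to four leaf stage.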

rape = format: in vivo, Brassica napus; details: for Plant response rating, Rape: 0 to 10 scale
In short: as §1

corn = format: in vivo, Zea mays; details: for Plant response rating, Corn: 0 to 10 scale
In short: as §1

morningglory = format: in vivo, Ipomoea hederacea; details: for Plant response rating, Morningglory: 0 to 10 scale
In short: as §1

sorghum = format: in vivo, Sorghum bicolor; details: for Plant response rating, Sorghum: 0 to 10 scale
In short: as §1

blackgrass = format: in vivo, Alopecurus myosuroides; details: for Plant response rating, Blackgrass: POSTEMERGENCE, 0 to 10 scale
In short: as §1

cotton = format: in vivo, Gossypium hirsutum; details: for Plant response rating, Cotton: 0 to 10 scale
In short: as §1

wheat = format: in vivo, Triticum aestivum; details: for Plant response rating, Wheat: 0 to 10 scale
In short: as §1

rice = format: in vivo, Oryza sativa; details: for Plant response rating, Rice: 0 to 10 scale
In short: as §1

purple nutsedge = format: in vivo, Cyperus rotundus; details: for Plant response rating, Nutsedge: 0 to 10 scale
In short: as §1

wild buckwheat = format: in vivo, Polygonum convolvulus; details: for Plant response rating, Wild buckwheat: 0 to 10 scale
In short: as §1

cocklebur = format: in vivo, Xanthium pensylvanicum; details: for Plant response rating, Cocklebur: 0 to 10 scale
In short: as §1

lambsquarters = format: in vivo, Chenopodium album; details: for Plant response rating, Lambsquarter: 0 to 10 scale
In short: as §1

soybean = format: in vivo, Glycine max; details: for Plant response rating, Soybean: 0 to 10 scale
In short: as §1

barley = format: in vivo, Hordeum vulgare; details: for Plant response rating, Barley: 0 to 10 scale
In short: as §1

bedstraw = format: in vivo, Galium aparine; details: for Plant response rating, Bedstraw: 0 to 10 scale
In short: as §1

giant foxtail = format: in vivo, Setaria faberii; details: for Plant response rating, Giant foxtail: 0 to 10 scale
In short: as §1

velvetleaf = format: in vivo, Abutilon theophrasti; details: for Plant response rating, Velvetleaf: 0 to 10 scale
In short: as §1

crabgrass = format: in vivo, Digitaria spp.; details: for Plant response rating, Crabgrass: 0 to 10 scale
In short: as §1

chickweed = format: in vivo, Stellaria media; details: for Plant response rating, Chickweed: 0 to 10 scale
In short: as §1

sugar beet = format: in vivo, Beta vulgaris; details: for Plant response rating, Sugar beet: 0 to 10 scale
In short: as §1

barnyardgrass = format: in vivo, Echinochloa crus-galli; details: for Plant response rating, Barnyardgrass: 0 to 10 scale
In short: as §1

cheatgrass = format: in vivo, Bromus secalinus; details: for Plant response rating, Cheatgrass: 0 to 10 scale
In short: as §1

In the case of `Clc1cc(Cl)c(-c2nn3c(c2Cl)CCCC3)cc1OCC1CC1` [Compound 69], the “Plant response rating, Wild oat” value (wild oat; POSTEMERGENCE, Rate 50 g/ha) is reported as 3, the “Plant response rating, Wild oat” value (wild oat; PREEMERGENCE, Rate 50 g/ha) is reported as 0 and the “Plant response rating (0 to 10 scale), Wild oat” value (wild oat; PREEMERGENCE, Rate 200 g/ha) is reported as 0. The “Plant response rating, Wild oat” value (wild oat; Rate 200 g/ha, POSTEMERGENCE) was 4, the “Plant response rating, Rape” value (rape; POSTEMERGENCE, Rate 50 g/ha) was 6 and the “Plant response rating, Rape” value (rape; PREEMERGENCE, Rate 50 g/ha) was 2. The “Plant response rating (0 to 10 scale), Rape” value (rape; PREEMERGENCE, Rate 200 g/ha) was 3, the “Plant response rating, Rape” value (rape; Rate 200 g/ha, POSTEMERGENCE) was 8 and the “Plant response rating, Corn” value (corn; POSTEMERGENCE, Rate 50 g/ha) was 3. For the same compound, the “Plant response rating, Corn” value (corn; PREEMERGENCE, Rate 50 g/ha) was 0, the “Plant response rating (0 to 10 scale), Corn” value (corn; PREEMERGENCE, Rate 200 g/ha) was 0 and the “Plant response rating, Corn” value (corn; Rate 200 g/ha, POSTEMERGENCE) was 3. The “Plant response rating, Morningglory” value (morningglory; POSTEMERGENCE, Rate 50 g/ha) was 7, the “Plant response rating, Morningglory” value (morningglory; PREEMERGENCE, Rate 50 g/ha) was 0 and the “Plant response rating (0 to 10 scale), Morningglory” value (morningglory; PREEMERGENCE, Rate 200 g/ha) was 0. The “Plant response rating, Morningglory” value (morningglory; Rate 200 g/ha, POSTEMERGENCE) was 7, the “Plant response rating, Sorghum” value (sorghum; POSTEMERGENCE, Rate 50 g/ha) was 4 and the “Plant response rating, Sorghum” value (sorghum; PREEMERGENCE, Rate 50 g/ha) was 0. The “Plant response rating (0 to 10 scale), Sorghum” value (sorghum; PREEMERGENCE, Rate 200 g/ha) was 0, the “Plant response rating, Sorghum” value (sorghum; Rate 200 g/ha, POSTEMERGENCE) was 6 and the “Plant response rating, Blackgrass” value (blackgrass; Rate 50 g/ha) was 3. For the same compound, the “Plant response rating (0 to 10 scale), Blackgrass” value (blackgrass; PREEMERGENCE, Rate 200 g/ha) was 2, the “Plant response rating, Blackgrass” value (blackgrass; Rate 200 g/ha) was 5 and the “Plant response rating, Cotton” value (cotton; POSTEMERGENCE, Rate 50 g/ha) was 10. For the same compound, the “Plant response rating, Cotton” value (cotton; PREEMERGENCE, Rate 50 g/ha) was 0, the “Plant response rating (0 to 10 scale), Cotton” value (cotton; PREEMERGENCE, Rate 200 g/ha) was 0 and the “Plant response rating, Cotton” value (cotton; Rate 200 g/ha, POSTEMERGENCE) was 10. For the same compound, the “Plant response rating, Wheat” value (wheat; POSTEMERGENCE, Rate 50 g/ha) was 4, the “Plant response rating, Wheat” value (wheat; PREEMERGENCE, Rate 50 g/ha) was 0 and the “Plant response rating (0 to 10 scale), Wheat” value (wheat; PREEMERGENCE, Rate 200 g/ha) was 2. For the same compound, the “Plant response rating, Wheat” value (wheat; Rate 200 g/ha, POSTEMERGENCE) was 6, the “Plant response rating, Rice” value (rice; POSTEMERGENCE, Rate 50 g/ha) was 5 and the “Plant response rating, Rice” value (rice; PREEMERGENCE, Rate 50 g/ha) was 0. The “Plant response rating (0 to 10 scale), Rice” value (rice; PREEMERGENCE, Rate 200 g/ha) was 0, the “Plant response rating, Rice” value (rice; Rate 200 g/ha, POSTEMERGENCE) was 6 and the “Plant response rating, Nutsedge” value (purple nutsedge; POSTEMERGENCE, Rate 50 g/ha) was 2. For the same compound, the “Plant response rating, Nutsedge” value (purple nutsedge; PREEMERGENCE, Rate 50 g/ha) was 0, the “Plant response rating (0 to 10 scale), Nutsedge” value (purple nutsedge; PREEMERGENCE, Rate 200 g/ha) was 0 and the “Plant response rating, Nutsedge” value (purple nutsedge; Rate 200 g/ha, POSTEMERGENCE) was 2. The “Plant response rating, Wild buckwheat” value (wild buckwheat; POSTEMERGENCE, Rate 50 g/ha) was 10, the “Plant response rating, Wild buckwheat” value (wild buckwheat; PREEMERGENCE, Rate 50 g/ha) was 0 and the “Plant response rating (0 to 10 scale), Wild buckwheat” value (wild buckwheat; PREEMERGENCE, Rate 200 g/ha) was 0. For the same compound, the “Plant response rating, Wild buckwheat” value (wild buckwheat; Rate 200 g/ha, POSTEMERGENCE) was 10, the “Plant response rating, Cocklebur” value (cocklebur; POSTEMERGENCE, Rate 50 g/ha) was 8 and the “Plant response rating, Cocklebur” value (cocklebur; PREEMERGENCE, Rate 50 g/ha) was 0. The “Plant response rating (0 to 10 scale), Cocklebur” value (cocklebur; PREEMERGENCE, Rate 200 g/ha) was 0, the “Plant response rating, Cocklebur” value (cocklebur; Rate 200 g/ha, POSTEMERGENCE) was 8 and the “Plant response rating, Lambsquarter” value (lambsquarters; POSTEMERGENCE, Rate 50 g/ha) was 8. For the same compound, the “Plant response rating, Lambsquarter” value (lambsquarters; PREEMERGENCE, Rate 50 g/ha) was 9, the “Plant response rating (0 to 10 scale), Lambsquarter” value (lambsquarters; PREEMERGENCE, Rate 200 g/ha) was 10 and the “Plant response rating, Lambsquarter” value (lambsquarters; Rate 200 g/ha, POSTEMERGENCE) was 8. The “Plant response rating, Soybean” value (soybean; POSTEMERGENCE, Rate 50 g/ha) was 2, the “Plant response rating, Soybean” value (soybean; PREEMERGENCE, Rate 50 g/ha) was 0 and the “Plant response rating (0 to 10 scale), Soybean” value (soybean; PREEMERGENCE, Rate 200 g/ha) was 0. For the same compound, the “Plant response rating, Soybean” value (soybean; Rate 200 g/ha, POSTEMERGENCE) was 5, the “Plant response rating, Barley” value (barley; POSTEMERGENCE, Rate 50 g/ha) was 4 and the “Plant response rating, Barley” value (barley; PREEMERGENCE, Rate 50 g/ha) was 0. The “Plant response rating (0 to 10 scale), Barley” value (barley; PREEMERGENCE, Rate 200 g/ha) was 0, the “Plant response rating, Barley” value (barley; Rate 200 g/ha, POSTEMERGENCE) was 4 and the “Plant response rating, Bedstraw” value (bedstraw; POSTEMERGENCE, Rate 50 g/ha) was 5. For the same compound, the “Plant response rating, Bedstraw” value (bedstraw; PREEMERGENCE, Rate 50 g/ha) was 0, the “Plant response rating (0 to 10 scale), Bedstraw” value (bedstraw; PREEMERGENCE, Rate 200 g/ha) was 6 and the “Plant response rating, Bedstraw” value (bedstraw; Rate 200 g/ha, POSTEMERGENCE) was 7. The “Plant response rating, Giant foxtail” value (giant foxtail; POSTEMERGENCE, Rate 50 g/ha) was 5, the “Plant response rating, Giant foxtail” value (giant foxtail; PREEMERGENCE, Rate 50 g/ha) was 2 and the “Plant response rating (0 to 10 scale), Giant foxtail” value (giant foxtail; PREEMERGENCE, Rate 200 g/ha) was 5. For the same compound, the “Plant response rating, Giant foxtail” value (giant foxtail; Rate 200 g/ha, POSTEMERGENCE) was 5, the “Plant response rating, Velvetleaf” value (velvetleaf; POSTEMERGENCE, Rate 50 g/ha) was 10 and the “Plant response rating, Velvetleaf” value (velvetleaf; PREEMERGENCE, Rate 50 g/ha) was 1. For the same compound, the “Plant response rating (0 to 10 scale), Velvetleaf” value (velvetleaf; PREEMERGENCE, Rate 200 g/ha) was 9, the “Plant response rating, Velvetleaf” value (velvetleaf; Rate 200 g/ha, POSTEMERGENCE) was 9 and the “Plant response rating, Crabgrass” value (crabgrass; POSTEMERGENCE, Rate 50 g/ha) was 4. For the same compound, the “Plant response rating, Crabgrass” value (crabgrass; PREEMERGENCE, Rate 50 g/ha) was 2, the “Plant response rating (0 to 10 scale), Crabgrass” value (crabgrass; PREEMERGENCE, Rate 200 g/ha) was 5 and the “Plant response rating, Crabgrass” value (crabgrass; Rate 200 g/ha, POSTEMERGENCE) was 4. For the same compound, the “Plant response rating, Chickweed” value (chickweed; POSTEMERGENCE, Rate 50 g/ha) was 2, the “Plant response rating, Chickweed” value (chickweed; PREEMERGENCE, Rate 50 g/ha) was 0 and the “Plant response rating (0 to 10 scale), Chickweed” value (chickweed; PREEMERGENCE, Rate 200 g/ha) was 0. The “Plant response rating, Chickweed” value (chickweed; Rate 200 g/ha, POSTEMERGENCE) was 3, the “Plant response rating, Sugar beet” value (sugar beet; POSTEMERGENCE, Rate 50 g/ha) was 10 and the “Plant response rating, Sugar beet” value (sugar beet; PREEMERGENCE, Rate 50 g/ha) was 3. The “Plant response rating (0 to 10 scale), Sugar beet” value (sugar beet; PREEMERGENCE, Rate 200 g/ha) was 6, the “Plant response rating, Sugar beet” value (sugar beet; Rate 200 g/ha, POSTEMERGENCE) was 9 and the “Plant response rating, Barnyardgrass” value (barnyardgrass; POSTEMERGENCE, Rate 50 g/ha) was 4. The “Plant response rating, Barnyardgrass” value (barnyardgrass; PREEMERGENCE, Rate 50 g/ha) was 0, the “Plant response rating (0 to 10 scale), Barnyardgrass” value (barnyardgrass; PREEMERGENCE, Rate 200 g/ha) was 1 and the “Plant response rating, Barnyardgrass” value (barnyardgrass; Rate 200 g/ha, POSTEMERGENCE) was 6. The “Plant response rating, Cheatgrass” value (cheatgrass; POSTEMERGENCE, Rate 50 g/ha) was 3, the “Plant response rating, Cheatgrass” value (cheatgrass; PREEMERGENCE, Rate 50 g/ha) was 0 and the “Plant response rating (0 to 10 scale), Cheatgrass” value (cheatgrass; PREEMERGENCE, Rate 200 g/ha) was 4. The “Plant response rating, Cheatgrass” value (cheatgrass; Rate 200 g/ha, POSTEMERGENCE) was 6.
